Experimental findings from paper PMC11744668, “2-Cyanopyrimidine-Containing Molecules for N-Terminal Selective Cyclization of Phage-Displayed Peptides” (ACS Chemical Biology, 2025) are described below.

Entries after “also recorded” stand apart in the source; their conditions may differ. Starred links: 1 amine or outer side, 2 acyl side, 3 side chain; linkers in the order of their positions; H or OH if unused. Positions of bridges follow the written chain, without caps; N, C: chain ends. Non-standard residues stand in square brackets, D forms with d. Residues, ends and D or L forms follow the SMILES beside them. No end group written: not given here. X2 = O=C([C@@H]1CSC(c2nccc(N[*:1])n2)=N1)[*:2]; Abu = CC[C@H](N)C(=O)O

The nature of data set [1]: Chloroacetamide addition kinetics with N-terminal Abu peptide CGK-5Abu. As to conditions: 500 μM peptide; CGK-5Abu vs CGK-5. An excerpt:
While pCAmCP and mCAmCP gave efficient cyclization of the peptide fusion of sfGFP, we looked to further investigate the specificity of the reaction using peptide kinetic assays. To do this, we first established reactivity of the compounds with a model peptide (CGK-5, Figures 3A and S16) that was composed of two cysteines flanking a region tuned for solubility in buffer (GGKGG) and with a tryptophan residue on the C-terminus for UV absorbance. […] To test the specificity of the reaction for the N-terminal cysteine, we synthesized a peptide analogue (CGK-5Abu, Figures 3D–F and S17) that contained 2-aminobutyric acid in place of the N-terminal cysteine. […] Since these reactions occurred at 500 μM of peptide to allow for analysis on the HPLC, we envision this difference will likely be exaggerated when using lower peptide/protein concentrations. Although it is unlikely at neutral pH, the chloroacetamide moiety can possibly react with nucleophilic amino acids other than cysteine. […]
The peptide (CGK-5 or CGK-5Abu, 5 mM stock in water) was diluted to 500 μM in ammonium bicarbonate buffer (50 mM, pH 7.5) containing 1.2 mM TCEP. […] Following dilution with 20 μL of water, the sample was then analyzed on a Shimadzu HPLC with an LCMS-2020 mass spectrometer attached (10–40% ACN gradient in H2O over 6 min, 0.1% formic acid, 1 mL/min flow rate, Shimadzu C18 250 × 4.6 mm, 5 μm). […]

In data set [2] the target is T1, ZNRF3 extracellular domain (ZNRF3-ECD) (Homo sapiens, UniProt Q9ULT6).
T1 construct: The ZNRF3 ECD was expressed and characterized exactly as previously described; SUMO (N, cleaved yes); made in house; host or cells: E. coli BL21, co-expressing BirA
T1 sequence (Q9ULT6 56-219 limits assumed): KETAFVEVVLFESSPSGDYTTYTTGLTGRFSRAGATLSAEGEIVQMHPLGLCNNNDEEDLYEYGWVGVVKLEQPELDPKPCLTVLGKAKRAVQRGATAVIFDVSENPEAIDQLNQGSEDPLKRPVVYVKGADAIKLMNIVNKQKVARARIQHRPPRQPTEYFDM
Nature of the data set: Biolayer interferometry (BLI) binding to immobilized biotinylated ZNRF3-ECD. As to conditions: pH 7.5, dissociation over 5 min. How it is done:
The ZNRF3 ECD was expressed and characterized exactly as previously described.[38] Plasmid pET28a-SUMO-ZNRF3-Avi was cotransformed into E. coli (BL21) along with a plasmid expressing BirA. The cells were then inoculated into 2× YT containing 50 μg/mL kanamycin and 34 μg/mL chloramphenicol and grown at 37 °C until OD = 0.5. Expression was then induced by the addition of 1 mM IPTG and 50 μM biotin, and then the protein was expressed for 18 h at 16 °C. The cells were then pelleted (3750g, 15 min) and then resuspended in buffer A (50 mM Tris-HCl, 10% glycerol, 150 mM NaCl, and 25 mM imidazole, pH 7.5, 20 mL/liter of expression). The cells were then lysed by sonication (1 s on, 1 s off, 5 min, 60% A, repeated once), and the lysate was clarified by centrifugation (25,000g, 20 min). The supernatant was then incubated with a Ni-NTA column for 45 min at 4 °C. The column was then washed with 5 CV of buffer A before being eluted using 2 CV of buffer B (buffer A + 240 mM imidazole). The elution was then concentrated using an Amicon centrifugal filter before being desalted into buffer A on a HiPrep 26/10 column. The SUMO tag was then cleaved by the addition of 30 μg/mL SUMO protease and incubation for 48 h at 4 °C. The protein was then loaded onto a second Ni-NTA column for 45 min at 4 °C, and the flowthrough was collected and concentrated to 1 mL by centrifugation. Pure protein was then isolated using size exclusion chromatography (HiLoad 16/600, Superdex 75 pg) in buffer C (50 mM Tris-HCl, pH 7.5, 10% (v/v) glycerol, 150 mM NaCl, and 0.5 mM EDTA). Pure protein was stored in storage buffer (50 mM Tris-HCl, pH 7.5, 50% (v/v) glycerol, and 150 mM NaCl) at −80 °C before being used for assays.
Biolayer interferometry (BLI) experiments were performed using streptavidin-coated biosensors (Sartorius Bio) on an Octet R8 biolayer interferometer (Sartorius Bio). All experiments were performed in assay buffer (10 mM HEPES, 150 mM NaCl, and 0.01% Tween 20, pH 7.5). Biotinylated ZNRF3 (28 μg/mL in assay buffer) was loaded onto the sensor to 4 nm of loading over 10 min, and then the sensors were quenched for one min with a 1% BSA solution in assay buffer. Peptides were serially diluted in assay buffer containing 0.8% DMF, and the association and dissociation to ZNRF3 were measured over 3 and 5 min, respectively. Between each experiment, sensors were regenerated using 10 mM glycine, pH 1.5. Binding curves were double-referenced against a protein-only sensor and a parallel unloaded sensor to correct for any nonspecific binding to the sensors. All curves were fit in the Octet Kinetic Analysis program (Sartorius Bio) using a 1:1 protein/ligand binding model.
Background: Biolayer interferometry detects binding as a change in optical thickness at a sensor tip.

Data set [3] has as its target T1, ZNRF3 extracellular domain (ZNRF3-ECD). Briefly: Phage selection against ZNRF3-ECD, NGS enrichment, mCAmCP-cyclized library. The format is binding. An excerpt:
In addition to simply ensuring the cyclization potential on phage, we also looked to investigate the selection differences using two different linkers to macrocyclize the same initial peptide library. ZNRF3 is a membrane protein that contains an intracellular E3 ligase domain and has previously shown potential in promoting degradation of oncogenic membrane proteins, such as PDL1.[32] ZNRF3 also plays a major role in the regulation of the Wnt signaling cascade, which can modulate a variety of cell processes related to oncogenesis and cell differentiation.[33]−[36] […] Because it has an extracellular domain that can be easily accessible to macrocyclic peptides, we envisioned that a selection against the extracellular domain for ZNRF3 (ZNRF3-ECD) would afford peptides that could potentially be used in the development of proteolysis-targeting chimeras (PROTACs) for a variety of membrane proteins. We expressed and characterized a biotinylated ZNRF3-ECD using an Avi-Tag on the […] to facilitate the selection using streptavidin magnetic beads, as has been previously described (Figure S20).[38] […] To avoid the potential for enriching peptides that bind to the streptavidin resin, we alternated loading the protein using streptavidin and NHS-functionalized magnetic beads for the first three rounds of selection (Figure 5).
The purified phage library (10^11 to 10^12 cfu) in binding buffer was incubated with 1 mM TCEP at 37 °C. After 30 min, the linker (pCAmCP or mCAmCP, 10 mM in DMSO) was added to a final concentration of 100 μM. The solution was incubated for 24 h at RT with slow rotation. The library was then directly used for affinity selection without further purification.
Streptavidin-coated magnetic beads (100 μL, 50% slurry, Cytiva Sera-Mag) were transferred to a 1.5 mL tube, washed three times with 1 mL of binding buffer (10 mM HEPES, 150 mM NaCl, 10 mM MgCl2, and 1 mM KCl, pH 7.4), resuspended in 100 μL of binding buffer, and split into two tubes. […]

Data set [4] is described as follows: Solubility observation for synthesized peptides. As to conditions: observed at synthesis / BLI testing. The format is physicochemical.
Data set [5] addresses T2, ZNRF3 extracellular domain (biotinylated) (UniProt Q9ULT6 56-219, biotin (on the Avi-Tag; co-expression with BirA and 50 uM biotin)).
T2 construct: ZNRF3, extracellular domain; also called ZNRF3-ECD; ZNRF3 ECD; source: E. coli (BL21), co-expressed with BirA, purified (Ni-NTA, SUMO protease, second Ni-NTA, SEC Superdex 75); not shown: Avi-Tag, N-terminal, kept
T2 sequence (looked up): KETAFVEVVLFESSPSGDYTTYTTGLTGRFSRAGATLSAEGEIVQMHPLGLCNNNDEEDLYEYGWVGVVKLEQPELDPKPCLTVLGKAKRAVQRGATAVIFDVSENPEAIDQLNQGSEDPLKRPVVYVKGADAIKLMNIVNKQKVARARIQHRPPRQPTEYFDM
Briefly: BLI; biotinylated ZNRF3-ECD loaded on streptavidin biosensors (Octet R8); peptides serially diluted in 10 mM HEPES, 150 mM NaCl, 0.01% Tween 20, pH 7.5 with 0.8% DMF; association 3 min, dissociation 5 min; double-referenced; 1:1 binding model. Conditions: both partners purified.

The Kd is the free concentration of one partner at which half of the binding sites on the other are occupied at equilibrium, for simple one-to-one binding. Read a low Kd as a tighter complex.

On to “[Abu]GGKGGCGW [CGK-5Abu, peptide analogue with 2-aminobutyric acid in place of the N-terminal cysteine]”, for which the “rate of reaction relative to the cyclization reaction, fold slower” value in data set [1] is listed as ~3 -fold slower.
Take `CSCC[C@@H]1NC(=O)[C@H](CC(C)C)NC(=O)[C@H](CC(N)=O)NC(=O)[C@H](CCC(=O)O)NC(=O)[C@H](Cc2c[nH]c3ccccc23)NC(=O)[C@H](CC(N)=O)NC(=O)[C@H](CC(C)C)NC(=O)[C@H](CCCNC(=N)N)NC(=O)[C@H](CC(C)C)NC(=O)[C@H](Cc2ccccc2)NC(=O)[C@@H]2CSC(=N2)c2nccc(n2)NC(=O)CSC[C@@H](C(N)=O)NC(=O)[C@H](Cc2c[nH]c3ccccc23)NC(=O)[C@@H]2CCCN2C1=O` [Peptide Z28S1] ({CH2CO}-[X2]FLRLNWENLMPWC-NH2; thioether N-14; C-terminus assumed): the “off rates (in words)” value in data set [2] was “high off rates; also recorded: extremely quick off rates”. In data set [3] (after round 1), the “fold enrichment after round 1” value is “over 32,000 -fold”. The “share of total sequences after round 4” value in data set [3] (round 4, 84,190 total sequences) was found to be 81%.
Regarding “CELVMMHGYWWRQC (also: sidechain bridge or staple (positions not given here)) [Peptide Z28S2, peptide enriched in the mCAmCP selection]”, the “fold increase in abundance after round 2” value in data set [3] (after round 2) is recorded as ~5000 -fold. Further, the “solubility (in words)” value in data set [4] is given as “poor solubility during synthesis”.
The molecule [Abu]HLSPLEAWRQKL[Abu] [Z27S1Abu (linear analogue of Z27S1)] came in with a Kd in data set [5] of 2600 nM.
